{
  "source": "paper PMC5473854",
  "about": "“Structure of the human TRiC/CCT Subunit 5 associated with hereditary sensory neuropathy” (Scientific Reports, 2017)",
  "molecular_target": "T1, human CCT5 (TRiC subunit 5) homo-oligomeric complex (Homo sapiens, UniProt P48643, H147R)",
  "T1 construct": "recombinant from pET21a in E. coli BL21(DE3)RIL, Histrap purified (tag not described here); double homo-octameric ring (two rings of eight, homo-hexadecamer)",
  "T1 sequence (P48643 whole entry H147R, the tested form may be a part, one chain of several)": "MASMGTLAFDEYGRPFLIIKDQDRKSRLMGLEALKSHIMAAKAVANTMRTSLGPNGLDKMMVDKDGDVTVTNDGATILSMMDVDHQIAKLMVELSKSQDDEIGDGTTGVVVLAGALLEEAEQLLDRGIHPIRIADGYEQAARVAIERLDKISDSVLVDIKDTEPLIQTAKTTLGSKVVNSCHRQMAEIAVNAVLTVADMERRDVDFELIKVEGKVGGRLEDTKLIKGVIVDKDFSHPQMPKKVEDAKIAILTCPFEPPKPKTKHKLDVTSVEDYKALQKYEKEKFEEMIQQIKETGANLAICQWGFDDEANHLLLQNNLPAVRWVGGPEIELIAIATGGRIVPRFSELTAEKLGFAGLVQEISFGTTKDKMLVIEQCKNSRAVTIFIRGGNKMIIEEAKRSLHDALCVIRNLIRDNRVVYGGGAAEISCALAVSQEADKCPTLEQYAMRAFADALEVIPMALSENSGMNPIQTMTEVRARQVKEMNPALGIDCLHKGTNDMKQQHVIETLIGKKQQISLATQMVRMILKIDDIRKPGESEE",
  "test": "X-ray crystal structure, […] Å",
  "conditions": "co-crystallised with 5.0 mM ADP; nucleotide-binding site of equatorial domain; 4 ADP per 4 subunits in asymmetric unit",
  "data": [
    {"smiles": "Nc1ncnc2c1ncn2[C@@H]1O[C@H](COP(=O)(O)OP(=O)(O)O)[C@@H](O)[C@H]1O", "note": "[ADP]", "values": [
      {"measurement": "X-ray crystal structure, 3.6 Å", "value": "the CCT5-H147R structure was solved in complex with the nucleotide ADP"}
    ]}
  ]
}
